Test results as given in patent publication US20240360109A1 (SHANGHAI HANSOH BIOMEDICAL CO., LTD., priority 2021, published 2024).
pEC50: −log10 of the molar value.

Columns and labels:
[1] = target: T1, human GLP-1 receptor (Homo sapiens, UniProt P43220); test: Stimulation of human GLP1 receptor stable transgenic cell line CHO-K1/GLP-1R/CRE-luc to produce cAMP (HTRF); type: cell-based; settings: cAMP production, CHO-K1/GLP-1R/CRE-luc cells, 30 minutes incubation, 0.5 mM IBMX
T1 construct: expressed in transfected cells
T1 sequence (P43220 24-463): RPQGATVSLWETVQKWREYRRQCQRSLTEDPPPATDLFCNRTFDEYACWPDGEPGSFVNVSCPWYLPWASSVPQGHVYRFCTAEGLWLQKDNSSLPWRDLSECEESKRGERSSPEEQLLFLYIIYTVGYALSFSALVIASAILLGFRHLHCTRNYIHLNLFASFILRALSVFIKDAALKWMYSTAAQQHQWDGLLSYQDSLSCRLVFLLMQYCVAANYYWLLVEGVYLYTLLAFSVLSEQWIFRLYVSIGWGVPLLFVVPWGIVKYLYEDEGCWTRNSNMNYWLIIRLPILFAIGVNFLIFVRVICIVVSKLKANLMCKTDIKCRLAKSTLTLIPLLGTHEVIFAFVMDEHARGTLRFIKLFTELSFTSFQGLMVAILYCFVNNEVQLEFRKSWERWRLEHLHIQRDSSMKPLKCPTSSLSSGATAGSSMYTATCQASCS
Source text: I. Determination of the Ability of the Compound of the Present Invention to Stimulate Human GLP1 Receptor Stable Transgenic Cell Lines to Produce cAMP
The purpose of this test example is to determine the ability of the compound to activate the human GLP-1 receptor on the cell surface. The EC50 that stimulates […] after agonism characterizes the compound's ability to activate the human GLP-1 receptor.
The frozen human GLP1 receptor stable transgenic cell line CHO-K1/GLP-1R/CRE-luc was taken from the liquid nitrogen tank, quickly thawed in a 37° C. water bath, resuspended with DMEM/F12 medium, centrifuged, and washed once. The cells were resuspended with the experimental buffer, namely DMEM/F12 medium containing 0.1% casein, and the experimental buffer was used to adjust the cell density. The cells were spread on spread on a 384-well plate at a density of 2500 cells/5 μL/well, and then to each well was added 2.5 μL of buffer-prepared IBMX working solution with a final concentration of IBMX of 0.5 mM, and 2.5 μL of the compound sample with gradient dilution (starting at 1000 nM, 3-fold dilution, 11 concentrations). The plate was centrifuged at 1000 rpm for 1 minute, shaken for 30 seconds to mix well, and incubated at room temperature for 30 minutes. Detection was performed using the Cisbio cAMP—Gs Dynamic kit. cAMP-d2 and Anti-cAMP-Eu^3+-Cryptate were diluted 20-fold with cAMP Lysis & Detection Buffer, respectively, and mixed well. To each well was added 5 μL diluted cAMP-d2 solution, and then added 5 μL diluted Anti-cAMP-Eu3^+-Cryptate solution. The plate was shaken for 30 seconds, and incubated at room temperature for 1 hour in the dark. The signal reading of HTRF was performed using the Biotek Synergy H1 microplate reader with an excitation wavelength of 320 nm and emission wavelengths of 620 nm and 665 nm.
The signal ratio (665 nm/620 nm*10,000) was calculated, and the signal ratio and sample concentration were nonlinearly fitted using a four-parameter equation in GraphPad Prism 6 to obtain the EC50 value.

[2] = system: GLP-1R humanized C57BL/6 mice; test: Intraperitoneal glucose tolerance (ipGTT) after single administration in GLP-1R humanized mice; type: in vivo; settings: single administration 0.3 mg/kg, glucose 2 g/kg intraperitoneal 1 hour after administration, AUC 0-120 min, versus model control group
Source text: To evaluate the effect of single administration of the compound of the present invention on blood glucose changes in the intraperitoneal glucose tolerance (ipGTT) experiment in GLP-1R humanized C57BL/6 mice.
C57BL/6_hGLP-1R, male, 5-8 weeks; Ultra-clean workbench; Electronic balance; Vitality type blood glucose meter; Glucose.
3.1 On the day before the experiment, the animals were randomly divided according to their weight, with 5 animals per group. All animals were deprived of food overnight and fasted for more than 16 hours from the time of administration.
3.2 0.2 g/mL glucose solution was prepared with pure water and filtered by 0.22 µm filter membrane for use.
3.3 On the testing day, the blood glucose value of each animal was measured successively by tail clipping method before administration, which was recorded as Baseline value;
Blood glucose test method: the mouse was placed in the immobilizer, the tail tip was disinfected with an alcohol cotton ball, then a little tail tip was cut off with scissors, the first drop of blood was discarded, and the second drop of blood was dropped onto the prepared blood glucose test strip to detect the blood glucose value;
3.4 The animals were administered according to animal weight, and the administration time was record for each animal. After 1 hour of administration, the blood glucose value of each animal was measured sequentially, and recorded as the 0 minute blood glucose value;
3.5 Subsequently, according to the weight of the day, the aminals were immediately injected with pure water or glucose solution into the abdominal cavity, with a volume of 10 mL/kg and a glucose dose of 2 g/kg;
3.6 The blood glucose values of each mouse were measured, and the time and data were recorded after 15, 30, 60, 90, and 120 minutes of pure water or glucose solution injection;
The blood glucose (BG)-time curve was drawn, and the area under the blood glucose-time curve was calculated. The calculation formula is as follows: […]
Note: BG0, BG15, BG30, BG60, BG90, and BG120 represent blood glucose values before glucose administration (0 min) and 15, 30, 60, 90, and 120 min after glucose administration, respectively.
The blood glucose decline rate of AUC at each time point was calculated according to the average blood glucose value and AUC of blood glucose at each time point.

[3] = system: GLP-1R humanized C57BL/6 mice fed with high-fat diet; test: Long-term administration: body weight and ingestion of GLP-1R humanized mice fed with high-fat diet; type: in vivo; settings: HFD mice; for Weight (g)-D0 Mean: Day 0 (day of first administration, baseline), 10 mg/kg oral once a day; for Weight (g)-D10 Mean / Eeight (g)-D10 Mean: Day 10, 10 mg/kg oral once a day; for Body weight change(%)-D10 Mean: Day 10 versus Day 0, 10 mg/kg oral once a day
Source text: The purpose of this test is to evaluate the effects of long-term administration of the compound on the body weight and ingestion of GLP-1R humanized C57BL/6 mice fed with high-fat diet.
C57BL/6_hGLP-1R, male, 5-8 weeks; 60% high-fat diet (HFD); Ultra-clean workbench; Electronic balance.
3.1 On the day of feeding with high-fat diet, C57BL/6 mice were randomly divided into two groups according to their weight. The first group was Blank, with 7 mice fed with normal control diet, while the remaining animals were in the modeling group, fed with high-fat diet, and continued until the end of the experiment.
3.2 At the 8th week of HFD feeding, the modeling group animals were randomly divided with 7 animals per group according to their weight. The first group was the Vehicle group (Vehicle: 0.5% CMC Na+1% Tween 80), which was given vehicle; The remaining group was the administration group; Administration regimen: Oral administration of the corresponding compound, administration cycle was 14 days, once a day for 14 days, with an administration dose of 10 mg/kg and an administration volume of 10 mL/kg. The Blank group continued to be fed with normal diet without any administration operation.
3.3 The day of administration was defined as Day 0.
3.4 During each administration, animals were weighed and data was recorded. Oral administration is performed according to body weight, with an administration volume of 10 mL/kg.
3.5 Starting from Day 0 of the experiment, the food intake of each group of mice was measured once every three days. Specifically, the feed was changed after each weighing and administration, and the added and remaining amounts were recorded.
3.6 On the end day of Day 14, all mice were euthanized sequentially according to grouping order, and the livers were dissected and weighed.
The weight and weight change rate of mice after administration were summarize and statistically analyzed. Weight change rate calculation: (BWt−BW0)/BW0×100%. BWt represents the weight of the mice on Day t of the experiment, and BW0 represents the weight of the mice on Day 0 of the experiment.
Calculation of food intake: (added amount (g)−remaining amount (g))/number of animals per cage, cumulative food intake is the sum of daily food intake of each animal during the administration period.
Experimental data were analyzed using GraphPad Prism software. The t-test method was used for comparison between the two groups. The one-way ANOVA method was used for comparisons between three or more groups.

[4] = Pharmacokinetic assay of SD rats; type: in vivo; settings: Sprague-Dawley, rat, po; male SD rats, plasma, dose 50 mg/kg (b1219 prints 5 mg/kg)
Method: SD rats were used as test animals. The pharmacokinetic behavior of the following example compounds was studied in the plasma of rats administered orally at a dose of 50 mg/kg.
Vehicle formula: 0.5% CMC-Na (1% Tween 80);
Three SD rats per group, male. […]
Before and after administration, 0.2 mL of blood was collected from the jugular vein at 0, 0.25, 0.5, 1, 2, 4, 6, 8 and 24 hours, placed in EDTA-K2 tubes, centrifuged at 6000 rpm at 4° C. for 6 min to separate the plasma. The plasma samples were stored at −80° C. The […] was fed 4 hours after the administration.
• 1) 160 μL of acetonitrile was added to 40 μL of the plasma sample for precipitation, and then the mixture was centrifuged at 3500×g for 5-20 min. • 2) After the above process, 100 μL of the supernatant was taken to analyze the concentration of the test compound by LC/MS/MS.
• Liquid chromatography condition: Shimadzu LC-20AD pump Mass spectrometry condition: AB Sciex API 4000 mass spectrometer Chromatographic column: phenomenex Gemiu 5 μm C18 50×4.6 mm • Mobile phase: Eluent A was 0.1% formic acid in water, and Eluent B was methanol • Flow rate: 1.0 mL/min • Elution time: 0-4.0 minutes, the eluent is as follows:
The main pharmacokinetic parameters were calculated using WinNonlin 8.2.

[5] = early clinical practice; cited from earlier work

Structure (SMILES) | pEC50 [1] | Blood glucose decline rate of AUC % [2] [%] | Weight (g)-D0 Mean ([3]; the 3rd table) [g] | Weight (g)-D10 Mean ([3]; the 3rd table) [g] | Body weight change(%)-D10 Mean ([3]; the 3rd table) [%] | Weight (g)-D0 Mean ([3]; the 4th table) [g] | Eeight (g)-D10 Mean ([3]; the 4th table) [g] | Body weight change(%)-D10 Mean ([3]; the 4th table) [%] | AUC(0-inf) [4] [ng·h/mL] | AUC(0-t) [4] [ng·h/mL] | Cmax [4] [ng/mL] | Tmax [4] [h] | half-life [4] [h] | hypoglycemic and weight reducing effects [5]
[2H]C([2H])([2H])Oc1cc(Cl)ccc1[C@@]1([2H])C=C(F)c2cccc(C3CCN(Cc4nc5ccc(C(=O)O)nc5n4C[C@@H]4CCO4)CC3)c2O1 [Example 41, 2-((4-((R)-2-(4-Chloro-2-(methoxy-d3)phenyl)-4-fluoro-2H-chromen-8-yl-2-d)piperidin-1-yl)methyl)-3-(((S)-oxetan-2-yl)methyl)-3H-imidazolo[4,5-b]pyridine-5-carboxylic acid] | 10.40 | 53.09 | 28.54 | 26.20 | −8.19 | – | – | – | – | – | – | – | – | –
[2H][C@]1(c2ccc(Cl)cc2F)C=Cc2cccc(C3CCN(Cc4nc5ccc(C(=O)O)nc5n4C[C@@H]4CCO4)CC3)c2O1 [Example 42, 2-((4-((R)-2-(4-Chloro-2-fluorophenyl)-2H-chromen-8-yl-2-d)piperidin-1-yl)methyl)-3-(((S)-oxetan-2-yl)methyl)-3H-imidazolo[4,5-b]pyridine-5-carboxylic acid] | 10.15 | 56.79 | 28.54 | 26.04 | −8.75 | – | – | – | – | – | – | – | – | –
[2H]C([2H])([2H])Oc1cc(Cl)ccc1[C@@]1([2H])C=Cc2cccc(C3CCN(Cc4nc5ccc(C(=O)O)nc5n4C[C@@H]4CCO4)CC3)c2O1 [Example 43, 2-((4-((R)-2-(4-Chloro-2-(methoxy-d3)phenyl)-2H-chromen-8-yl-2-d)piperidin-1-yl)methyl)-3-(((S)-oxetan-2-yl)methyl)-3H-imidazolo[4,5-b]pyridine-5-carboxylic acid] | 10.30 | 46.57 | – | – | – | 28.37 | 26.57 | −6.37 | – | – | – | – | – | –
O=C(O)c1ccc2nc(CN3CCC(c4cccc5c4O[C@@H](c4ccc(Cl)cc4F)C=C5)CC3)n(C[C@@H]3CCO3)c2n1 [Example 48, 2-((4-((R)-2-(4-Chloro-2-fluorophenyl)-2H-chromen-8-yl)piperidin-1-yl)methyl)-3-(((S)-oxetan-2-yl)methyl)-3H-imidazolo[4,5-b]pyridine-5-carboxylic acid] | 10.52 | 62.89 | – | – | – | 28.23 | 25.85 | −8.44 | 19100 | 19100 | 6400 | 2 | 3.8 | –
N#Cc1ccc(COc2cccc(C3CCN(Cc4nc5ccc(C(=O)O)cc5n4C[C@@H]4CCO4)CC3)n2)c(F)c1 [PF-06882961] | – | – | – | – | – | – | – | – | – | – | – | – | – | significant hypoglycemic and weight reducing effects
